Experimental data as given in US20170281573A1, “MEDICINAL COMPOSITION FOR ENHANCED DELIVERY OF TRITERPENES” (PHARCON INC., priority 2016, published 2017).
Structures can show the parent of a compound that is named as a salt.

Experiment: Water solubility
Format: physicochemical

water solubility	Compound
below 1 mcg/ml	C[C@H]1[C@H](C)CC[C@]2(C(=O)O)CC[C@]3(C)C(=CC[C@@H]4[C@@]5(C)C[C@@H](O)[C@H](O)C(C)(C)[C@@H]5CC[C@]43C)[C@H]12 [Corosolic acid]
less than 5 mcg/ml	C[C@H]1[C@H](C)CC[C@]2(C(=O)O)CC[C@]3(C)C(=CC[C@@H]4[C@@]5(C)C[C@@H](O)[C@H](O)C(C)(C)[C@@H]5CC[C@]43C)[C@H]12 [sodium salt of this acid]
